# Earlier results in US4699782A (Delalande S.A., priority 1983, dated 1987).
# Settings: human, in vivo; cited from earlier work
smiles,measurement,value
C#CCN(C)CCCOc1ccc(Cl)cc1Cl [Clorgyline],dose of Tyramine from which hypertensive effects were recorded,≥ 6 mg
